Values quoted from earlier work as cited in publication PMC3411352 (Biopolymers, 2011).
Values joined by “and” are separate entries in the source; they are usually repeats but may differ in a detail not shown here. Equal values may be shown once. Read-outs that look alike come from different tables or passages of the source.

Assays:
[1] = molecular target: T1, rat κ opioid receptors (Rattus norvegicus, UniProt P34975); settings: for Ki: read-out: Ki ± SEM κ, κ opioid receptors
[2] = molecular target: T1, rat κ opioid receptors; settings: relative to Dyn A (1-13)NH2 (0% control)
[3] = molecular target: κ opioid receptors
[4] = molecular target: rat μ opioid receptors (Rattus norvegicus, UniProt P33535); settings: read-out: Ki ± SEM μ
[5] = molecular target: κ opioid receptors; settings: selectivity

T1 sequence (P34975 whole entry): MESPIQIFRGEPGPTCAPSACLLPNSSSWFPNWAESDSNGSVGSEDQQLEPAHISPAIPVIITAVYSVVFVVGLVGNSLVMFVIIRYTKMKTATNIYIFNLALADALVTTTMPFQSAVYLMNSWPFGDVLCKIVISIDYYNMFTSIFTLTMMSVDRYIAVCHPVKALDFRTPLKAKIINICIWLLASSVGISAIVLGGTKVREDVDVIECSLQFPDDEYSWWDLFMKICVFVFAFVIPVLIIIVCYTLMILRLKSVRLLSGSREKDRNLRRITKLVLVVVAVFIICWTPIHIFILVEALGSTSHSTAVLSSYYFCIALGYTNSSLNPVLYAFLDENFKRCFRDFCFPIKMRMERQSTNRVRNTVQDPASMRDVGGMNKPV
Sequence of rat μ opioid receptors (P33535 whole entry): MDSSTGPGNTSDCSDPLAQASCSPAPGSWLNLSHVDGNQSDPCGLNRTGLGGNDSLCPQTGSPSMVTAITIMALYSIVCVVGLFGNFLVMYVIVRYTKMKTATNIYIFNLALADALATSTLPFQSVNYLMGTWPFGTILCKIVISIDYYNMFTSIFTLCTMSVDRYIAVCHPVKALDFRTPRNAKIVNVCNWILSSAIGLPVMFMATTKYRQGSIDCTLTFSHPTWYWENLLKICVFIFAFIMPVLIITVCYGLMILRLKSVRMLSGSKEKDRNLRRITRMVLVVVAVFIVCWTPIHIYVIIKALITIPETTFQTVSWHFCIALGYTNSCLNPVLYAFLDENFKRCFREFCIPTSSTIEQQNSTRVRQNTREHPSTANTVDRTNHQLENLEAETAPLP

Ac[Phe^1,2,3,Arg^4,D-Ala^8]Dyn A(1-11)-NH2 [Compound 1]
Ki [1]: 10 ± 3 nM
AC % control @ 10 μM [2]: 88 ± 8 % control

[(2S)-Mdp^1]Dyn A-(1-11)NH2 [Dynantin]
Ki ([3]; read-out: Ki (κ)): 0.82 nM
Ki ratio (κ/μ/δ) ([3]; selectivity): 1/259/198

[NMePhe^1]arodyn [Compound 2]
Ki [1]: 4.6 nM and 4.56 nM
Ki ratio (μ/κ) ([1]; selectivity κ over μ): 1100
Ki [4]: 5060 ± 790 nM
AC % control @ 10 μM [2]: 86 ± 1 % control

[Pro^3]Dyn A-(1-11)NH2
Ki ratio (κ/μ/δ) [5]: 1/2110/3260
